Reference: patent publication US11384063B2, “Modulators of estrogen receptor proteolysis and associated methods of use” (Arvinas Operations, Inc., priority 2017, dated 2022)

Key:
ERα [1] = target: T1, ERα (Homo sapiens, UniProt P03372); test: ERE luciferase reporter gene assay in T47D-KBluc cells (target engagement); assay type: cell-based; design: T47D human breast cancer cells stably transfected with estrogen responsive element/promoter/luciferase reporter gene; host or cells: T47D-KBluc cells; conditions: 10% FBS, 24 hours, Table 2 VHL centric PROTACs, read-out: IC50
T1 sequence (P03372 1-595): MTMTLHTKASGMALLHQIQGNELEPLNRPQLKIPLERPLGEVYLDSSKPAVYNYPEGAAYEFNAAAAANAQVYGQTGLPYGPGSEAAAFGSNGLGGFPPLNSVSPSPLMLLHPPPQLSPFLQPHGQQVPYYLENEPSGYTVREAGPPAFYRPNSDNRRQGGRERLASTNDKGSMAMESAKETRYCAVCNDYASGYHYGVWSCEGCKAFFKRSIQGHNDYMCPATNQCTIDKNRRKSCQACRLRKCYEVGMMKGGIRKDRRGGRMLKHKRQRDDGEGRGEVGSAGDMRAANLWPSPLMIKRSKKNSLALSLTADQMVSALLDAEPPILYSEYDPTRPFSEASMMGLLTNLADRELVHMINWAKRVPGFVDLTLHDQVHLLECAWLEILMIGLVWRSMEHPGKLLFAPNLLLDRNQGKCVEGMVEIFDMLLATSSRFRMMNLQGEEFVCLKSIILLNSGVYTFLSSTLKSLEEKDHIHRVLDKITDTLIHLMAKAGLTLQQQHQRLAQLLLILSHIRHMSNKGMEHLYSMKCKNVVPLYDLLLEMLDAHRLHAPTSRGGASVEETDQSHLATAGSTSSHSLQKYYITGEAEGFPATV
In short: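 PROTACs were tested at 12 concentrations from 300 nM down to 2 pM in 3-fold steps for 24 h on T47D-KBluc cells with a stable ERE-driven luciferase. Medium was RPMI with 10% FBS, measured at 10 pM estrogen. IC50 came from luminescence after lysis, in duplicate.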

ERα [2] = target: T1, ERα; test: Estrogen receptor-alpha (ERα) degradation assay in MCF-7 cells using western blot; assay type: cell-based; design: assessed for their activity in degrading ERα in MCF-7 cells via western blot; endogenous in cells; host or cells: MCF7 cells; conditions: ER-alpha degradation, MCF7 cells, 3 days of incubation
Protocol: Compounds prepared in this application were also analyzed for the degradation of ERα in MCF7 and T47D cells.
Estrogen Receptor-Alpha (ERα) Degradation Assay in MCF-7 Cells Using Western Blot Method for Table 4.
The exemplary novel ERα degraders were assessed for their activity in degrading ERα in MCF-7 cells via western blot. The assay was carried out in the presence of 10% fetal bovine serum (FBS) or high percentage of human or mouse serum.
MCF7 cells were grown in DMEM/F12 with 10% fetal bovine serum and seeded at 24,000 cells per well in 100 μl into 96-well clear tissue culture plates. The following day, the cells were treated with PROTACs in a […] concentration curve with 100 nM being the top concentration and serial dilutions to make the other concentrations (30 nM, 10 nM, 3 nM, 1 nM, and 0.3 nM). At all concentrations, 0.01% DMSO is the final concentration in the well. The following day, the plates are aspirated, washed with 50 μl of cold PBS. The cells are lysed with 50 μl/well 4° C. Cell Lysis Buffer (Catalog #9803; Cell Signaling Technology, Danvers, Mass.) (20 mM Tris-HCL (pH 7.5), 150 mM NaCl, 1 mM […], 1 mM EGTA, 1% Triton, 2.5 mM sodium pyrophosphate, 1 mM B-glycerophosphate, 1 mM sodium vanadate, 1 ug/ml leupeptin). Lysates were clarified at 16,000×g for 10 minutes, and 2 μg of protein was subjected to SDS-PAGE analysis and followed by immunoblotting according to standard protocols. The antibodies used were ERα (Cell Signaling Technologies Catalog #8644), and Tubulin (Sigma Catalog #T9026; St. Louis, Mo.). Detection reagents were Clarity Western ECL substrate (Bio-Rad Catalog #170-5060; Hercules, Calif.).
Alternatively, MCF7 cells were grown in DMEM/F12 with 10% fetal bovine serum and seeded at 24,000 cells per well in 500 μl in 24-well clear tissue culture plates. The following day, the cells were treated with PROTACs in a 5-point concentration curve (100 nM, 33 nM, 11 nM, 3.7 nM, and 1.2 nM) in the presence of 0.01% DMSO. After 72 hours, the wells are aspirated and washed with 500 μl of PBS. The cells are lysed with 100 μl/well 4° C. Cell Lysis Buffer (Catalog #9803; Cell Signaling Technology, Danvers, M A) (20 mM Tris-HCL (pH 7.5), 150 mM NaCl, 1 mM Na2EDTA, 1 mM EGTA, 1% Triton, 2.5 mM sodium pyrophosphate, 1 mM B-glycerophosphate, 1 mM sodium vanadate, 1 ug/ml leupeptin). Lysates were clarified at 16,000×g for 10 minutes, and 2 μg of protein was subjected to SDS-PAGE analysis and followed by immunoblotting according to standard protocols. The antibodies used were ER(X (Cell Signaling Technologies Catalog #8644), and Tubulin (Sigma Catalog #T9026; St. Louis, Mo.). Detection reagents were Clarity Western ECL substrate (Bio-Rad Catalog #170-5060; Hercules, Calif.).

Row | Structure (SMILES) | IC50 (ERα [1]) [nM] | DC50 (ERα [2]) [nM] | Dmax (ERα [2]) [%]
1 | Cc1ncsc1-c1ccc([C@H](C)NC(=O)[C@@H]2C[C@@H](O)CN2C(=O)[C@@H](NC(=O)COCCOCCOCCOc2ccc(Oc3c(-c4ccc(Cl)cc4)sc4cc(O)ccc34)cc2)C(C)(C)C)cc1 [Compound 119, (2S,4R)-1-((S)-2-tert-butyl-14-(4-(2-(4-chlorophenyl)-6-hydroxybenzo[b]thiophen-3-yloxy)phenoxy)-4-oxo-6,9,12-trioxa-3-azatetradecane)-4-hydroxy-N-((S)-1-(4-(4-methylthiazol-5-yl)phenyl)ethyl)pyrrolidine-2-carboxamide] | 1.1 | 1 to 10 | > 75
2 | Cc1ncsc1-c1ccc([C@H](C)NC(=O)[C@@H]2C[C@@H](O)CN2C(=O)[C@@H](NC(=O)Cc2ccc(-c3ccn(CCOc4ccc(Oc5c(-c6ccc(F)cc6)sc6cc(O)ccc56)cc4)n3)cc2)C(C)(C)C)cc1 [Compound 141, (2S,4R)-1-[(2S)-2-[2-(4-[1-[2-(4-[[2-(4-fluorophenyl)-6-hydroxy-1-benzothiophen-3-yl]oxy]phenoxy)ethyl]-1H-pyrazol-3-yl]phenyl)acetamido]-3,3-dimethylbutanoyl]-4-hydroxy-N-[(1S)-1-[4-(4-methyl-1,3-thiazol-5-yl)phenyl]ethyl]pyrrolidine-2-carboxamide] | 1.5 | 1 to 10 | > 75
3 | Cc1ncsc1-c1ccc(CNC(=O)[C@@H]2C[C@@H](O)CN2C(=O)[C@@H](NC(=O)COCCN2CCN(CCOc3ccc(Oc4c(-c5ccc(Br)cc5)sc5cc(O)ccc45)cc3)CC2)C(C)(C)C)cc1 [Compound 140, (2S,4R)-1-[(2S)-2-[2-(2-[4-[2-(4-[[2-(4-bromophenyl)-6-hydroxy-1-benzothiophen-3-yl]oxy]phenoxy)ethyl]piperazin-1-yl]ethoxy)acetamido]-3,3-dimethylbutanoyl]-4-hydroxy-N-[[4-(4-methyl-1,3-thiazol-5-yl)phenyl]methyl]pyrrolidine-2-carboxamide] | 11 | 1 to 10 | > 75
4 | C[C@H](NC(=O)[C@@H]1C[C@@H](O)CN1C(=O)[C@@H](NC(=O)COCCOCCN(C)CCOc1ccc(Oc2c(-c3ccc(F)cc3)sc3cc(O)ccc23)cc1)C(C)(C)C)c1ccc(Cl)cc1 [Compound 129] | 1.4 | 1 to 10 | > 75
5 | Cc1ncsc1-c1ccc(CNC(=O)[C@@H]2C[C@@H](O)CN2C(=O)[C@@H](NC(=O)COCCCCOc2ccc(-c3ccc(Oc4c(-c5ccc(F)cc5)sc5cc(O)ccc45)cc3)nc2)C(C)(C)C)cc1 [Compound 133, (2S,4R)-1-[(2S)-2-[2-(4-[[6-(4-[[2-(4-fluorophenyl)-6-hydroxy-1-benzothiophen-3-yl]oxy]phenyl)pyridin-3-yl]oxy]butoxy)acetamido]-3,3-dimethylbutanoyl]-4-hydroxy-N-[[4-(4-methyl-1,3-thiazol-5-yl)phenyl]methyl]pyrrolidine-2-carboxamide] | 3.7 | 1 to 10 | > 75
6 | Cc1ncsc1-c1ccc(CNC(=O)[C@@H]2C[C@@H](O)CN2C(=O)[C@@H](NC(=O)CN2CCC(N3CC(OCCOc4ccc(Oc5c(-c6ccc(Br)cc6)sc6cc(O)ccc56)cc4)C3)CC2)C(C)(C)C)cc1 [Compound 160, (2S,4R)-1-[(2S)-2-[2-(4-[3-[2-(4-[[2-(4-bromophenyl)-6-hydroxy-1-benzothiophen-3-yl]oxy]phenoxy)ethoxy]azetidin-1-yl]piperidin-1-yl)acetamido]-3,3-dimethylbutanoyl]-4-hydroxy-N-[[4-(4-methyl-1,3-thiazol-5-yl)phenyl]methyl]pyrrolidine-2-carboxamide] | 6.3 | 1 to 10 | > 75
7 | Cc1ncsc1-c1ccc(CNC(=O)[C@@H]2C[C@@H](O)CN2C(=O)[C@@H](NC(=O)CN2CCN(CCOCCOc3ccc(Oc4c(-c5ccc(Br)cc5)sc5cc(O)ccc45)cc3)CC2)C(C)(C)C)cc1 [Compound 158, (2S,4R)-1-[(2S)-2-[2-(4-[2-[2-(4-[[2-(4-bromophenyl)-6-hydroxy-1-benzothiophen-3-yl]oxy]phenoxy)ethoxy]ethyl]piperazin-1-yl)acetamido]-3,3-dimethylbutanoyl]-4-hydroxy-N-[[4-(4-methyl-1,3-thiazol-5-yl)phenyl]methyl]pyrrolidine-2-carboxamide] | 13.7 | 10 to 100 | > 75

Now those with a lower IC50 (ERα [1]), led by results:

Row | IC50 (ERα [1]) [nM] | DC50 (ERα [2]) [nM] | Dmax (ERα [2]) [%] | Structure (SMILES)
8 | 0.4 | < 1 | > 75 | Cc1ncsc1-c1ccc(CNC(=O)[C@@H]2C[C@@H](O)CN2C(=O)[C@@H](NC(=O)COCCN2CCN(CCOc3ccc(Oc4c(-c5ccc(F)cc5)sc5cc(O)ccc45)cc3)CC2)C(C)(C)C)cc1 [Compound 118, (2S,4R)-1-((S)-2-(2-(2-(4-(2-(4-((2-(4-fluorophenyl)-6-hydroxybenzo[b]thiophen-3-yl)oxy)phenoxy)ethyl)piperazin-1-yl)ethoxy)acetamido)-3,3-dimethylbutanoyl)-4-hydroxy-N-(4-(4-methylthiazol-5-yl)benzyl)pyrrolidine-2-carboxamide]
9 | 0.2 | < 1 | > 75 | Cc1ncoc1-c1ccc([C@H](C)NC(=O)[C@@H]2C[C@@H](O)CN2C(=O)[C@@H](NC(=O)COCCOCCOCCOc2ccc(Oc3c(-c4ccc(Br)cc4)sc4cc(O)ccc34)cc2)C(C)(C)C)cc1 [Compound 127, (2S,4R)-1-((S)-14-(4-(2-(4-bromophenyl)-6-hydroxybenzo[b]thiophen-3-yloxy)phenoxy)-2-tert-butyl-4-oxo-6,9,12-trioxa-3-azatetradecane)-4-hydroxy-N-((S)-1-(4-(4-methyloxazol-5-yl)phenyl)ethyl)pyrrolidine-2-carboxamide]
10 | 0.5 | < 1 | > 75 | Cc1ncsc1-c1ccc([C@H](C)NC(=O)[C@@H]2C[C@@H](O)CN2C(=O)[C@@H](NC(=O)COCCOCCN2CCC(c3ccc(Oc4c(-c5ccc(F)cc5)sc5cc(O)ccc45)cc3)CC2)C(C)(C)C)cc1 [Compound 142, (2S,4R)-1-[(2S)-2-[2-(2-[2-[4-(4-[[2-(4-fluorophenyl)-6-hydroxy-1-benzothiophen-3-yl]oxy]phenyl)piperidin-1-yl]ethoxy]ethoxy)acetamido]-3,3-dimethylbutanoyl]-4-hydroxy-N-[(1S)-1-[4-(4-methyl-1,3-thiazol-5-yl)phenyl]ethyl]pyrrolidine-2-carboxamide]
